One assay has as its target T1, NMDA receptor (Rattus norvegicus, UniProt P35439+Q00960).
T1 construct: Membranes were prepared by homogenization of the whole brain minus cerebellum and medulla oblongata; from tissue; host or cells: rat whole brain minus cerebellum and medulla oblongata (membranes)
As to the kind of experiment: 3H-Ro 25-6981 binding (displacement) on rat brain membranes. Details: species or system Füllinsdorf albino rats.
Conditions: not given
The procedure:
3H-Ro 25-6981 binding (Ro 25-6981 is [R-(R*,S*)]-a-(4-Hydroxy-phenyl)-b-methyl-4-(phenyl-methyl)-1-piperidine propanol)
Male Füllinsdorf albino rats weighing between 150-200 g were used. Membranes were prepared by homogenization of the whole brain minus cerebellum and medulla oblongata with a Polytron (10.000 rpm, 30 seconds), in 25 volumes of a cold Tris-HCl 50 mM, EDTA 10 mM, pH 7.1 buffer. The homogenate was centrifuged at 48.000 g for 10 minutes at 4°C. The pellet was resuspended using the Polytron in the same volume of buffer and the homogenate was incubated at 37°C for 10 minutes. After centrifugation the pellet was homogenized in the same buffer and frozen at -80°C for at least 16 hours but not more than 10 days. For the binding assay the homogenate was thawed at 37°C, centrifuged and the pellet was washed three times as above in a Tris-HCl 5 mM, pH 7.4 cold buffer. The final pellet was resuspended in the same buffer and used at a final concentration of […] of protein/ml.
3H-Ro 25-6981 binding experiments were performed using a Tris-HCl 50 mM, pH 7.4 buffer. For displacement experiments 5 nM of 3H-Ro 25-6981 were used and non specific binding was measured using 10 mM of tetrahydroisoquinoline and usually it accounts for 10% of the total. The incubation time was 2 hours at 4°C and the assay was stopped by filtration on Whatmann GF/B glass fiber filters (Unifilter-96, Packard, Zürich, Switzerland). The filters were washed 5 times with cold buffer. The radioactivity on the filter was counted on a Packard Top-count microplate scintillation counter after addition of […] of microscint 40 (Canberra Packard S.A., Zürich, Switzerland).
The effects of compounds were measured using a minimum of 8 concentrations and repeated at least once. The pooled normalized values were analyzed using a non-linear regression calculation program which provide IC50 with their relative upper and lower 95% confidence limits (RS1, BBN, USA).
T1 sequence (Q00960 27-1482, other chains not shown): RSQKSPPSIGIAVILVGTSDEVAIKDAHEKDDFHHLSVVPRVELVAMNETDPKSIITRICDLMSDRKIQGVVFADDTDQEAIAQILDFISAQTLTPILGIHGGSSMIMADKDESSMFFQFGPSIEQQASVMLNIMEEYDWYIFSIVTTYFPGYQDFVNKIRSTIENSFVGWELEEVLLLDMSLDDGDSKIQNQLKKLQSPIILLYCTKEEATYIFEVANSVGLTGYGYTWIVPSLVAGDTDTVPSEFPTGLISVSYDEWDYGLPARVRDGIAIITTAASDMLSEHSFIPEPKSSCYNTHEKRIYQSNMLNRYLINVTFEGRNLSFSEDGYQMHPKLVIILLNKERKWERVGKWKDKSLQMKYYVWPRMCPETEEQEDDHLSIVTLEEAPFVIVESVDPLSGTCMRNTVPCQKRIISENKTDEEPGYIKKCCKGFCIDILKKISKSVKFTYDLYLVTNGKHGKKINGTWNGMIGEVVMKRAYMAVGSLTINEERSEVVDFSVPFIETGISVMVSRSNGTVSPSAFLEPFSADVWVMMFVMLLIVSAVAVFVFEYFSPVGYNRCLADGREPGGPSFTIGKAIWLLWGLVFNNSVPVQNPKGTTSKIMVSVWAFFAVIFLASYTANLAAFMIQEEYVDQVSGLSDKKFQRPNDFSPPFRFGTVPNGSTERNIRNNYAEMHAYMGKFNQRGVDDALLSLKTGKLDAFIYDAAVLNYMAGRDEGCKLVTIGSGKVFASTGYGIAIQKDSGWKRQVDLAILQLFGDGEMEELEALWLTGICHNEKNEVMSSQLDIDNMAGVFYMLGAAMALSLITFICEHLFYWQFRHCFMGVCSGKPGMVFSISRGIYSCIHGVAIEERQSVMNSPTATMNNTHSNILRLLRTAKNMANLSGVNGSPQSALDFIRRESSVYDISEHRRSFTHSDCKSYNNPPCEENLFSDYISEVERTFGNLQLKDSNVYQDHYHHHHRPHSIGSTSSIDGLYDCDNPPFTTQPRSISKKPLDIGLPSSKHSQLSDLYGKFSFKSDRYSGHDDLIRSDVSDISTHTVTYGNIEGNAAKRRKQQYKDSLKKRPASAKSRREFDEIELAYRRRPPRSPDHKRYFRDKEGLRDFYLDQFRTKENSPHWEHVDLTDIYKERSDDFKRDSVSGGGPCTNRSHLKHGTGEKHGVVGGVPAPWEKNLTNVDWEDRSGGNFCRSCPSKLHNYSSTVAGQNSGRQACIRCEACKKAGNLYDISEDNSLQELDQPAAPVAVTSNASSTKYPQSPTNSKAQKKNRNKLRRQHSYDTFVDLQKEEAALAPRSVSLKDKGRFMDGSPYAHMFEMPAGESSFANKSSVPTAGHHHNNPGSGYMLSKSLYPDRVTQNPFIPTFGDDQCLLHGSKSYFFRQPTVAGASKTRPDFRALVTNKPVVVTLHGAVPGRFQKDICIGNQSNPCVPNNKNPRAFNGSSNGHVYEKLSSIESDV
By IC50 is commonly meant the midpoint of a concentration-inhibition curve. The compound `Oc1ccc(C2(O)CCC(NCCCc3ccccc3)CC2)cc1` (stereo not drawn) [Example 71c, cis-4-[1-Hydroxy-4-(3-phenyl-propylamino)-cyclohexyl]-phenol] showed an IC50 of 25 nM. In turn, `Oc1ccc([C@H]2OC[C@H](NCCCc3ccccc3)CO2)cc1` [Example 85, trans-4-[5-(3-Phenyl-propylamino)-[1,3]dioxan-2-yl]-phenol 1:1 but-2-enedioic acid] showed an IC50 of 22 nM.

Staying with this assay, now noted: displacement of 5 nM 3H-Ro 25-6981; rat whole brain membranes (minus cerebellum and medulla oblongata); 2 hours at 4°C; read-out: IC50.
Regarding `Oc1ccc([C@H]2CC[C@H](NCC(O)Cc3ccccc3)CC2)cc1` (mixture of isomers) [Example 50, (RS)-4-[trans-4-(2-Hydroxy-3-phenyl-propylamino)-cyclohexyl]-phenol], the IC50 turned out to be 80 nM. For `CC(CCc1ccccc1)N(C)[C@H]1CC[C@H](c2ccc(O)cc2)CC1` (mixture of isomers) [Example 57b, (RS)-4-[trans-4-[Methyl-(1-methyl-3-phenyl-propyl)-amino]-cyclohexyl]-phenol], the IC50 was found to be 10 nM. With `CC(CCc1ccccc1)N[C@H]1CC[C@H](c2ccc(O)cc2)CC1` (mixture of isomers) [Example 58, 4-[trans-4-[(RS)-1-Methyl-3-phenyl-propylamino)-cyclohexyl]-phenol], the IC50 was 40 nM. In the case of `CN(CCC(O)c1ccccc1)[C@H]1CC[C@H](c2ccc(O)cc2)CC1` (mixture of isomers) [Example 63b, (RS)-4-[trans-4-[(3-Hydroxy-3-phenyl-propyl)-methyl-amino]-cyclohexyl]-phenol], the concentration for half-maximal inhibition (IC50) was determined as 20 nM. For the compound `Oc1ccc([C@H]2CC[C@H](NCCC(O)c3ccccc3)CC2)cc1` (mixture of isomers) [Example 64b, (RS)-4-[trans-4-(3-Hydroxy-3-phenyl-propylamino)-cyclohexyl]-phenol], the IC50 was 60 nM. Turning to `CN(C(CO)CCc1ccccc1)[C@H]1CC[C@H](c2ccc(O)cc2)CC1` (mixture of isomers) [Example 65b, (RS)-4-[trans-4-[(1-Hydroxymethyl-3-phenyl-propyl)-methyl-amino]-cyclohexyl]-phenol], the IC50 came to 10 nM. For the compound `OCC(CCc1ccccc1)N[C@H]1CC[C@H](c2ccc(O)cc2)CC1` (mixture of isomers) [Example 66c, (RS)-4-[trans-4-(1-Hydroxymethyl-3-phenyl-propylamino)-cyclohexyl]-phenol], the IC50 was found to be 20 nM.

`CN(CCC(CO)c1ccccc1)[C@H]1CC[C@H](c2ccc(O)cc2)CC1` (mixture of isomers) [Example 67b, (RS)-4-[trans-4-[(4-Hydroxy-3-phenyl-butyl)-methyl-amino]-cyclohexyl]-phenol]: the concentration for half-maximal inhibition (IC50) came to 100 nM. `OCC(CN[C@H]1CC[C@H](c2ccc(O)cc2)CC1)Cc1ccccc1` (mixture of isomers) [Example 70b, (RS)-4-[trans-4-(2-Hydroxymethyl-3-phenyl-propylamino)-cyclohexyl]-phenol]: the IC50 was determined as 100 nM. The same measure, in the same setting: for `C[C@@H]1C[C@H](c2ccc(O)cc2)CC[C@H]1N(C)CCCc1ccccc1` (racemic) [Example 73b, (1RS,3RS,4RS)-4-[3-Methyl-4-[methyl-(3-phenyl-propyl)-amino]-cyclohexyl]-phenol] the value was 10 nM; for `C[C@@H]1C[C@H](c2ccc(O)cc2)CC[C@H]1NCCCc1ccccc1` (racemic) [Example 74c, (1RS,3RS,4RS)-4-[3-Methyl-4-(3-phenyl-propylamino)-cyclohexyl]-phenol], 10 nM.

Take `C[C@@H]1CN(c2ccc(O)cc2)CC[C@@H]1NCCCc1ccccc1` (racemic) [Example 81g, (3RS,4SR)-4-[3-Methyl-4-(3-phenyl-propylamino)-piperidin-1-yl]-phenol]: the IC50 worked out at 27 nM. With `Oc1ccc([C@H]2CC[C@H](NCCCc3ccccc3)CC2)cc1` [Example 22b, trans-4-[4-(3-Phenyl-propylamino)-cyclohexyl]-phenol], the half-maximal inhibitory concentration (IC50) is 20 nM. `Oc1ccc([C@H]2CC[C@H](NCCCCc3ccccc3)CC2)cc1` [Example 24, trans-4-[4-(4-Phenyl-butylamino)-cyclohexyl]-phenol]: the half-inhibitory concentration (IC50) amounted to 70 nM.

On to `CN(CCCc1ccccc1)[C@H]1CC[C@H](c2ccc(O)cc2)CC1` [Example 39b, trans-4-{4-[Methyl-(3-phenyl-propyl)-amino]-cyclohexyl}-phenol], for which the IC50 amounted to 9 nM. In the case of `CCN(CCCc1ccccc1)[C@H]1CC[C@H](c2ccc(O)cc2)CC1` [Example 40c, trans-4-{4-[Ethyl-(3-phenyl-propyl)-amino]-cyclohexyl}-phenol], the IC50 worked out at 40 nM. Consider `CN(CCOc1ccccc1)[C@H]1CC[C@H](c2ccc(O)cc2)CC1` [Example 41b, trans-4-{4-[Methyl-(2-phenoxy-ethyl)-amino]-cyclohexyl}-phenol], for which the IC50 worked out at 20 nM. Take `Oc1ccc([C@H]2CC[C@H](NCCOc3ccccc3)CC2)cc1` [Example 43b, trans-4-[4-(2-Phenoxy-ethylamino)-cyclohexyl]-phenol]: the IC50 was found to be 20 nM. Regarding `Cc1ccc(OCCN(C)[C@H]2CC[C@H](c3ccc(O)cc3)CC2)cc1` [Example 44b, trans-4-[4-[Methyl-(2-p-tolyloxy-ethyl)-amino]-cyclohexyl]-phenol], the IC50 came to 8 nM.

Regarding `Cc1ccc(OCCN(C)[C@H]2CC[C@@H](c3ccc(O)cc3)CC2)cc1` [Example 45b, cis-4-[4-[Methyl-(2-p-tolyloxy-ethyl)-amino]-cyclohexyl]-phenol], the IC50 came out at 130 nM. `CN(CCOc1ccc(F)cc1)[C@H]1CC[C@H](c2ccc(O)cc2)CC1` [Example 46b, trans-4-(4-{[2-(4-Fluoro-phenoxy)-ethyl]-methyl-amino}-cyclohexyl)-phenol]: the IC50 was found to be 10 nM. For the compound `Cc1cccc(OCCN(C)[C@H]2CC[C@H](c3ccc(O)cc3)CC2)c1` [Example 47b, trans-4-{4-[Methyl-(2-m-tolyloxy-ethyl)-amino]-cyclohexyl}-phenol], the half-maximal inhibitory concentration (IC50) was 30 nM.

Regarding `Cc1ccccc1OCCN(C)[C@H]1CC[C@H](c2ccc(O)cc2)CC1` [Example 48c, trans-4-{4-[Methyl-(2-o-tolyloxy-ethyl)-amino]-cyclohexyl}-phenol], the IC50 is 40 nM.

For the compound `CN(CCCc1ccccc1)[C@H]1CC[C@H](c2ccc(NS(C)(=O)=O)cc2)CC1` [Example 56, trans-N-(4-{4-[Methyl-(3-phenyl-propyl)-amino]-cyclohexyl}-phenyl)-methanesulfonamide], the IC50 amounted to 11 nM. On to `Cc1ccc(CCCN[C@H]2CC[C@H](c3ccc(O)cc3)CC2)cc1` [Example 60b, trans-4-[4-(3-p-Tolyl-propylamino)-cyclohexyl]-phenol], for which the IC50 amounted to 7 nM. Same read-out and setting: for `CN(CCCc1ccc(F)cc1)[C@H]1CC[C@H](c2ccc(O)cc2)CC1` [Example 61b, trans-4-(4-{[3-(4-Fluoro-phenyl)-propyl]-methyl-amino}-cyclohexyl)-phenol] the value was 4 nM; for `Oc1ccc([C@H]2CC[C@H](NCCCc3ccc(F)cc3)CC2)cc1` [Example 62b, trans-4-[4-[3-(4-Fluoro-phenyl)-propylamino]-cyclohexyl]-phenol], 6 nM. Take `CN(CCCc1ccccc1)C1CCN(c2ccc(O)cc2)CC1` [Example 75, 4-[4-[Methyl-(3-phenyl-propyl)-amino]-piperidin-1-yl]-phenol]: the IC50 stood at 7 nM.

`Oc1ccc(N2CCC(NCCCc3ccccc3)CC2)cc1` [Example 77, 4-[4-(3-Phenyl-propylamino)-piperidin-1-yl]-phenol]: the IC50 came to 7 nM. With `Oc1ccc(N2CCC(NCCCCc3ccccc3)CC2)cc1` [Example 83c, 4-[4-(4-Phenyl-butylamino)-piperidin-1-yl]-phenol], the IC50 was 60 nM.

Values taken from patent EP0982026A2, “Use of aryl-cyclohexylamine derivatives in the manufacture of NMDA receptor blockers” (priority 1998, dated 2000).
